Experiments:
[1] = tested on: HSC2 cells (squamous cell carcinoma cells); assay: Growth of squamous cell carcinoma cells (Cell Counting Kit-8); format: cell-based; conditions: HSC2 cells, 0, 24, 72, 96 h
Experimental: HSC2 cells (squamous cell carcinoma cells) were seeded at 2.5×10^3 cells/well of a 96-well plate (TPP Techno Plastic Products AG, Trasadingen, Switzerland). Next, 0, 24, 72, and 96 h after that, 100 μL of 10% Cell Counting Kit-8 (DOJINDO LABORATORIES, Kumamoto) was added. The mixture was incubated at 37° C. and its absorbance (at a measurement wavelength of 450 nm/control wavelength of 600 nm) was measured by using a Sunrise Rainbow RC (Tecan Group Ltd., Mannedorf, Switzerland).

[2] = tested on: cancer stem cells (CD44) in HuH-7 cells; assay: Inhibitory effect on cancer stem cells (FCM analysis of CD44), Example 6.4; format: cell-based, human; conditions: CD44, day 2, IC-2 50 μM, 5-FU 0.5 μM, compared with control 1% DMSO
Experimental: CD44, a cancer stem cell marker, was used as an indicator to examine an inhibitory effect of IC-2 on cancer stem cells. First, 70 to 90% confluent HuH-7 cells were harvested and seeded at 1.5×10^6 cells per 10-cm cell culture dish. After 15 h, the cells were treated with hexachlorophene (15 μM), ICG-001 (15 μM), PKF118-310 (5 μM), IC-2 (50 μM), or 5-FU (0.5 μM), and the mixture was cultured at 37° C. Each control sample used was 1% DMSO, a solvent for each compound or the anti-cancer drug. Day 2 after the drug treatment, the cells were harvested from each culture dish. The cells were centrifuged at 1000 rpm and at 4° C. for 5 min to remove a supernatant and were then washed twice with 1 mL of 0.5% FBS/2 mM EDTA/PBS. Next, the cells were suspended in 500 μL of 5% BSA/0.5% FBS/2 mM EDTA/PBS for blocking at 4° C. for 15 min.
Then, 5 μL of a mouse anti-human CD44 monoclonal antibody (156-3C11, Cell Signaling Technology Inc., Danvers, Mass.) was added to 500 μL of the cell suspension. The mixture was resuspended and subjected to a primary antibody reaction in a dark room at 4° C. for 10 min. After that, the cells were washed 3 times with 1 mL of PBS. Subsequently, 1.0 μg of Alexa Fluor 488-labeled IgG (H+L) (Life Technologies Corp., Carlsbad, Calif.) was added and the mixture was suspended. Then, a secondary antibody reaction was carried out in a dark room at 4° C. for 10 min. […]

[3] = tested on: CD44-expressing HSC2 cells; assay: CD44-expressing cells in HSC2 cells (cell sorter analysis); format: cell-based, human; conditions: 48 h, 25 μM IC-2 or 0.5 μM 5-FU, 83.9% without treatment
Experimental: In addition, HSC2 cells were seeded at 5×10^5 cells/10-cm cell culture dish (TPP). After 24 h, the cells were treated with 0.5 μM of 5-FU or 25 μM of IC-2. Also prepared were cells without low-molecular-weight compound treatment (0 μM). After additional 48 h, the respective cells were harvested. As a primary antibody, used was a mouse anti-human CD44 antibody (Abcam Ltd., Cambridge, UK). Then, Alexa Fluor 488-labeled goat anti-mouse IgG (H+L) (Life Technologies Corp., Carlsbad, Calif.) was used. After that, a cell sorter BD bioscience FACS Aria (Becton, Dickinson and Company, Franklin Lakes, N.J.) was used for analysis.

[4] = tested on: DLD-1 cells (colon cancer cells); assay: Growth of colon cancer cells (Cell Counting Kit-8); format: cell-based; conditions: 10 or 50 μM, 48 h
Experimental: DLD-1 cells (colon cancer cells) were cultured on 10-cm cell culture dishes (TPP Techno Plastic Products AG, Trasadingen, Switzerland) by using DMEM under conditions at 5% CO2, 37° C., and 100% humidity. For passage, 70 to 90% confluent cells were washed with PBS(−), and 300 μL of 0.25% Trypsin/1 mM EDTA per 2 mL of PBS(−) was added thereto. The cells were incubated at 37° C. for 5 min and were then detached. After that, 5 mL of DMEM was used to collect the cells. The cells collected were centrifuged at 1000 rpm for 3 min to remove a supernatant. The cells were then suspended in DMEM and were split at a 1:4 ratio.
DLD-1 cells were seeded at 5×10^5 cells/well of a 96-well plate (TPP). After 24 h, the cells were treated with 0, 10, or 50 μM of IC-2. Next, 48 h after the treatment, 100 μL of 10% Cell Counting Kit-8 (DOJINDO LABORATORIES, Kumamoto) was added. The mixture was incubated at 37° C. and its absorbance (at a measurement wavelength of 450 nm/control wavelength of 600 nm) was measured by using a Sunrise Rainbow RC (Tecan Group Ltd., Mannedorf, Switzerland).

SMILES: O=C1C(Cc2ccccc2)N2C(=O)CCN(C(=O)NCc3ccccc3)C2CN1Cc1cccc2ccccc12 (stereo not shown) [IC-2]
- growth inhibitory effect on squamous cell carcinoma cells [1]: exhibited a growth inhibitory effect
- number of cancer stem cells [2]: significant reduction in the number of cancer stem cells
- percentage of CD44-expressing cells [3]: 71.4%
- growth inhibitory effect on colon cancer cells [4]: elicited a growth inhibitory effect
